Drawing on patent US11149019B2, “Phenylpyridine derivative and pharmaceutical composition comprising the same” (Daewoong Pharmaceutical Co., Ltd., priority 2017, dated 2021), this text covers IC50 for 25 compounds.

Structures are written as SMILES.

One assay has as its target T1, ITK (Homo sapiens, UniProt Q08881).
T1 construct: purchased Promega Corporation
T1 sequence (Q08881 1-620): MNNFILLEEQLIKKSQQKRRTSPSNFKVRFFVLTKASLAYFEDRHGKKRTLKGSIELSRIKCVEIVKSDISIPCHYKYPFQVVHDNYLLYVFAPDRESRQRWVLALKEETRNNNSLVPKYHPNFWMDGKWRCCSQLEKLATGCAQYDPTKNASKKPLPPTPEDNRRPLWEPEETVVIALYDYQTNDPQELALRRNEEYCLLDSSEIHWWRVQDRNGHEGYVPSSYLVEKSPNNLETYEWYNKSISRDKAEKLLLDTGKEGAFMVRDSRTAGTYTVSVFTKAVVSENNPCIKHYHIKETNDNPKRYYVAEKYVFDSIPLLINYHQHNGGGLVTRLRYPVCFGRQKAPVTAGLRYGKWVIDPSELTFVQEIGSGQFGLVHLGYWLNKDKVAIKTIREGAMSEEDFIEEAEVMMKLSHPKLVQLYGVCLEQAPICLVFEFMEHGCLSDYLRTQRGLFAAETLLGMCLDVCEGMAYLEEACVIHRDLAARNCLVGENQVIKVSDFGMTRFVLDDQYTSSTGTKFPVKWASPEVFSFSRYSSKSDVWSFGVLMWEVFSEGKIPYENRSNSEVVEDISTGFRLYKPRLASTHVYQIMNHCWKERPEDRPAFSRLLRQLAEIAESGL
The assay can be described thus: ADP-Glo + ITK Kinase enzyme system kit, inhibitory activity against ITK. The note with it: ITK enzyme 0.4 ng/ul, ATP final concentration of 25 ul, 30° C. for 1 hour, luminescence, duplicate. In kind it is biochemical. On the procedure:
(§1) Inhibitory activities against BTK and ITK were measured for the compounds prepared in the above Examples as follows.
The inhibitory activity against ITK was evaluated using ‘ADP-Glo™+ITK Kinase enzyme system’ kit (Promega Corporation). In a white 96-well plate, 10 ul of ITK enzyme prepared so as to have a final concentration of 0.4 ng/ul was mixed with 5 ul of compounds having a final concentration of 1 uM in the case of evaluating a single concentration of compound and a concentration of 1000, 300, 100, 30, 10, 3, 1, 0.3, 0.1 and 0.03 nM in the case of IC50 evaluation, and then reacted at room temperature for 15 minutes. To the plate on which reactions were completed, 5 ul of substrate and 5 ul of ATP prepared so as to have a final concentration of […] added and then allowed to react at 30° C. for 1 hour. All wells of the plate were treated with 25 ul of ADP-Glo™ reagent and then allowed to react at 30° C. for 40 minutes. After that, all wells were treated with 50 ul of kinase detection buffer, and then allowed to react at 30° C. for 30 minutes under light shielding conditions. For the plate on which all reactions were completed, luminescence was measured and the results were calculated. Evaluation was carried out in duplicate, and negative control and positive control were calculated depending on whether or not the enzyme was added without treatment of the compound. The IC50 was calculated based on the calculated values.

The target of the next assay is T2, BTK (Homo sapiens, UniProt Q06187).
T2 construct: purchased Promega Corporation
The assay can be described thus: ADP-Glo + BTK Kinase enzyme system kit, inhibitory activity against BTK. In kind it is biochemical. The note with it: BTK enzyme 1 ng/ul, ATP 10 μM, 30° C. for 1 hour, luminescence, duplicate. As to the method:
as §1
The inhibitory activities against BTK were evaluated using ‘ADP-Glo™+BTK Kinase enzyme system’ kit (Promega Corporation). In a white 96-well plate, 10 ul of BTK enzyme prepared so as to have a final concentration of 1 ng/ul was mixed with 5 μl of compounds having a final concentration of […] the case of evaluating a single concentration of compound and a concentration of 1000, 300, 100, 30, 10, 3, 1, 0.3, 0.1 and 0.03 nM in the case of IC50 evaluation, and then reacted at room temperature for 15 minutes. 5 ul of substrate and 5 ul of ATP prepared so as to have a final concentration of 10 μM were added to the plate on which reactions were completed, and then allowed to react at 30° C. for 1 hour. All wells of the plate were treated with 25 ul of ADP-Glo™ reagent and allowed to react at 30° C. for 40 minutes. After that, all wells were treated with 50 ul of kinase detection buffer, and then reacted at 30° C. for 30 minutes under light shielding conditions. For the plate on which all reactions were completed, luminescence was measured and the results were calculated. Evaluation was carried out in duplicate, and negative control and positive control were calculated depending on whether or not the enzyme was added without treatment of the compound. The IC50 was calculated based on the calculated values.

T2 sequence (Q06187 whole entry): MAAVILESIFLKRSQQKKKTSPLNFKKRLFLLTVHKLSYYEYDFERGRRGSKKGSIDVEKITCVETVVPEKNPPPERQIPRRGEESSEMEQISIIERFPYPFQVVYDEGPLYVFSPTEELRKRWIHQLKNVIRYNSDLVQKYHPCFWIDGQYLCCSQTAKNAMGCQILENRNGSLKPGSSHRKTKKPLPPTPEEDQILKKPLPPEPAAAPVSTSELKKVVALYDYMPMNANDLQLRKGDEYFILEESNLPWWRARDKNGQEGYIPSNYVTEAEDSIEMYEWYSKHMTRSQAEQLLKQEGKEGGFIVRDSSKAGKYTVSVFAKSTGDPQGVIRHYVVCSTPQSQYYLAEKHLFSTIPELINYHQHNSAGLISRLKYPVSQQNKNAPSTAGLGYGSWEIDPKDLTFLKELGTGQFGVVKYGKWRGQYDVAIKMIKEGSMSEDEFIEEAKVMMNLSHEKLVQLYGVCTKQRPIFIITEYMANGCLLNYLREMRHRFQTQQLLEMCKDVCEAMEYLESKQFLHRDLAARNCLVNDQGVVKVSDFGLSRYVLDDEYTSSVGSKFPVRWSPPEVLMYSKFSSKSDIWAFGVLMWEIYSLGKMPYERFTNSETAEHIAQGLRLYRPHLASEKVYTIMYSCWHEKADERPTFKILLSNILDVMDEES

Take `C=CC(=O)Nc1cccc(-c2cc(Cc3ccccc3)cc(Nc3cc[nH]n3)n2)c1` [Compound 11]: the IC50 on ITK stood at 134 nM; on BTK, 17.5 nM.
On the same counts, the results for `C=CC(=O)Nc1cccc(-c2cc(CN3CCOCC3)cc(NC(=O)CC)n2)c1` [Compound 68, N-(3-(4-(morpholinomethyl)-6-propionamidopyridin-2-yl)phenyl)acrylamide] are more than 1000 nM and more than 400 nM.
As to `C=CC(=O)Nc1cccc(-c2cc(N3CCOCC3)cc(Nc3ncc(C)s3)n2)c1` [Compound 36, N-(3-(6-((5-methylthiazol-2-yl)amino)-4-morpholinopyridin-2-yl)phenyl)acrylamide], the half-inhibitory concentration (IC50) is 394 nM at ITK and more than 100 nM at BTK.
For the compound `C=CC(=O)Nc1ccc(-c2cc(Cc3ccccc3)cc(Nc3cc(C)[nH]n3)n2)cc1` [Compound 1, N-(4-(4-benzyl-6-(5-methyl-1H-pyrazol-3-ylamino)pyridin-2-yl)phenyl)acrylamide], the results for the IC50 at ITK and on BTK were 289 nM and more than 1000 nM, respectively.
Take `C=CC(=O)Nc1cccc(-c2cc(CN3CCN(CCO)CC3)cc(Nc3ncc(C)s3)n2)c1` [Compound 43, N-(3-(4-((4-(2-hydroxyethyl)piperazin-1-yl)methyl)-6-(5-methylthiazol-2-ylamino)pyridin-2-yl)phenyl)acrylamide]: the 50% inhibitory concentration (IC50) came out at 2.1 nM on ITK and 2.3 nM on BTK.
In the case of `C=CC(=O)Nc1cccc(-c2cc(CN3CCN(C4CC4)CC3)cc(Nc3ncc(C)s3)n2)c1` [Compound 45, N-(3-(4-((4-cyclopropylpiperazin-1-yl)methyl)-6-((5-methylthiazol-2-yl)amino)pyridin-2-yl)phenyl)acrylamide], the IC50 stood at 2.1 nM at ITK and 3 nM at BTK.
Turning to `C=CC(=O)Nc1cccc(-c2cc(CN3CCOCC3)cc(NC(=O)NC)n2)c1` [Compound 67, N-(3-(6-(3-methylureido)-4-(morpholinomethyl)pyridin-2-yl)phenyl)acrylamide], the values for the IC50 on ITK and on BTK were more than 200 nM and 64.1 nM, respectively.
Consider `C=CC(=O)Nc1cccc(-c2cc(CN3CCN(C(=O)C4CC4)CC3)cc(Nc3ncc(C)s3)n2)c1` [Compound 63, N (3(4((4-(cyclopropanecarbonyl)piperazin-1-yl)methyl)-6-(5-methylthiazol-2-ylamino)pyridin-2-yl)phenyl)acrylamide], for which the IC50 on ITK was 9 nM; on BTK it was 6.7 nM.
As for `C=CC(=O)Nc1cc(-c2cc(CN3CCOCC3)cc(Nc3ncc(C)s3)n2)ccc1C` [Compound 58], the concentration for half-maximal inhibition (IC50) on ITK came out at 14.1 nM; at BTK it was 6.4 nM.
On the same counts, the results for `C=CC(=O)Nc1cccc(-c2cc(CN3CCN(C(C)C)CC3)cc(Nc3ncc(C)s3)n2)c1` [Compound 54] are 2.9 nM and 1.9 nM.
Regarding `C=CC(=O)Nc1cccc(-c2cc(CN3CCN(C(C)=O)CC3)cc(Nc3ncc(C)s3)n2)c1` [Compound 60, N-(3-(4-((4-acetylpiperazin-1-yl)methyl)-6-(5-methylthiazol-2-ylamino)pyridin-2-yl)phenyl)acrylamide], the IC50 is 2.2 nM at ITK and 1.9 nM on BTK.
For `C=CC(=O)Nc1cccc(-c2cc(C(F)(F)F)cc(Nc3cc(C)[nH]n3)n2)c1` [Compound 17], the half-maximal inhibitory concentration (IC50) on ITK came out at 131 nM; on BTK, 11.1 nM.
Regarding `C=CC(=O)Nc1cccc(-c2cc(CN3CCOCC3)cc(Nc3ncc(C(=O)Nc4c(C)cccc4Cl)s3)n2)c1` [Compound 33, 2-((6-(3-acrylamidophenyl)-4-(morpholinomethyl)pyridin-2-yl)amino)-N-(2-chloro-6-methylphenyl)thiazole-5-carboxamide], the IC50 at ITK is more than 1000 nM; on BTK, 1.9 nM.
`C=CC(=O)Nc1cccc(-c2cc(CNC(C)C(C)(C)C)cc(Nc3cc(C)[nH]n3)n2)c1` (centres unmarked) [Compound 19]: the half-inhibitory concentration (IC50) is more than 500 nM on ITK and 74.7 nM on BTK.
Turning to `C=CC(=O)Nc1cccc(-c2cc(C(=O)N3CCOCC3)cc(Nc3cc(C)[nH]n3)n2)c1` [Compound 31, N-(3-(6-((5-methyl-1H-pyrazol-3-yl)amino)-4-(morpholine-4-carbonyl)pyridin-2-yl)phenyl)acrylamide], the half-inhibitory concentration (IC50) is 56.9 nM at ITK and 17.6 nM on BTK.
`C=CC(=O)Nc1cccc(-c2cc(CN3CCOCC3)cc(Nc3nnc(C)o3)n2)c1` [Compound 41, N-(3-(6-((5-methyl-1,3,4-oxadiazol-2-yl)amino)-4-(morpholinomethyl)pyridin-2-yl)phenyl)acrylamide]: the 50% inhibitory concentration (IC50) at ITK was more than 1000 nM; at BTK, more than 400 nM.
`C=CC(=O)Nc1cccc(-c2cc(C(=O)NC(C)C(C)(C)C)cc(Nc3cc(C)[nH]n3)n2)c1` (centres unmarked) [Compound 20, 2-(3-acrylamidophenyl)-N-(3,3-dimethylbutan-2-yl)-6-(5-methyl-1H-pyrazol-3-ylamino)isonicotinamide]: the IC50 is 254 nM on ITK and 28.1 nM at BTK.
On to `C=CC(=O)Nc1cccc(-c2cc(CN3CCOCC3)cc(Nc3ncns3)n2)c1` [Compound 44, N-(3-(6-((1,2,4-thiadiazol-5-yl)amino)-4-(morpholinomethyl)pyridin-2-yl)phenyl)acrylamide], for which the 50% inhibitory concentration (IC50) at ITK was determined as 12 nM; at BTK it was 2 nM.
On the same counts, the results for `C=CC(=O)N(C)c1cccc(-c2cc(CN3CCOCC3)cc(Nc3ncc(C)s3)n2)c1` [Compound 65] are 2.1 nM and 1.9 nM.
For `C=CC(=O)Nc1ccc(C)c(-c2cc(CN3CCOCC3)cc(Nc3ncc(C)s3)n2)c1` [Compound 59, N-(4-methyl-3-(6-((5-methylthiazol-2-yl)amino)-4-(morpholinomethyl)pyridin-2-yl)phenyl)acrylamide], the IC50 at ITK was determined as 18.1 nM; on BTK, 8.3 nM.
Turning to `C#CC(=O)Nc1ccc(-c2cc(Cc3ccccc3)cc(Nc3cc(C)[nH]n3)n2)cc1` [Compound 3, N-(4-(4-benzyl-6-((5-methyl-1H-pyrazol-3-yl)amino)pyridin-2-yl)phenyl)propiolamide], the half-maximal inhibitory concentration (IC50) on ITK is 23.5 nM; at BTK, 45.9 nM.
With `C=CC(=O)Nc1cccc(-c2cccc(Nc3cc[nH]n3)n2)c1` [Compound 15, N-(3-(6-(1H-pyrazol-3-ylamino)pyridin-2-yl)phenyl)acrylamide], the 50% inhibitory concentration (IC50) at ITK was more than 500 nM; at BTK it was 18 nM.
`C=CC(=O)Nc1cccc(-c2cccc(Nc3cc(-c4ccccc4)[nH]n3)n2)c1` [Compound 14, N-(3-(6-(5-phenyl-1H-pyrazol-3-ylamino)pyridin-2-yl)phenyl)acrylamide]: the IC50 turned out to be 399 nM at ITK and 350 nM at BTK.
Consider `C=CC(=O)Nc1cccc(-c2cc(Cc3cccnc3)cc(Nc3ncc(C)s3)n2)c1` [Compound 73, N-(3-(6-((5-methylthiazol-2-yl)amino)-4-(pyridin-3-ylmethyl)pyridin-2-yl)phenyl)acrylamide], for which the values for the IC50 on ITK and on BTK were 2.3 nM and 2.5 nM, respectively.
With `C=CC(=O)Nc1cccc(-c2cc(CN3CCOCC3)cc(Nc3ncc(C)s3)n2)c1` [Compound 30, N (3(6(5-methylthiazol-2-ylamino)-4-(morpholinomethyl)pyridin-2-yl)phenyl)acrylamide], the IC50 at ITK was found to be 4.3 nM; on BTK, 3.1 nM.
